# Source: publication PMC3274548, “Toward New Therapeutics for Skin and Soft Tissue Infections: Propargyl-Linked Antifolates Are Potent Inhibitors of MRSA and Streptococcus pyogenes” (PLoS ONE, 2012)
# Read-outs that look alike come from different tables or passages of the source.
# Legend:
# HepG2 cells = test: Mammalian cell toxicity (Alamar Blue); assay type: cell-based; settings: Homo sapiens, cytotoxicity, 4 h incubation
# Procedure: Fetal calf serum used in these assays was lot matched throughout. All cultures were maintained under a humidified 5% CO2 atmosphere at 37°C, had media refreshed twice weekly and were subcultured by trypsinization and resuspension at a ratio of 1∶5 each week. Toxicity assays were conducted between passages 10–20. Target compound toxicity was measured by incubating the test compound with the cells for 4 h, washing the cells and finally treating the cells with Alamar Blue. After 12–24 h, the fluorescence of the reduced dye was measured. Fluorescence intensity as a function of test compound concentration was fit to the Fermi equation, using non-linear least squares regression analysis, to estimate IC50 values.
# Streptococcus pyogenes = test: MIC, broth microdilution with Alamar Blue; assay type: cell-based; settings: for Selectivity S. pyogenes: IC50 (MCF10)/MIC (pathogen), both values in µM
# Procedure: (§1) Stock solutions of standard antibiotics and test compounds were made at 50 mM in DMSO. […] For susceptibility testing, 10 µL of glycerol stock was suspended in a 10 mL shake flask culture of chemically defined Isosensitest broth (Oxoid) supplemented with 2% w/v glucose. A sample of the shake flask culture was diluted to 1×10^6 cells/mL in media and added to 96-well test plates (100 µL per well) containing test compounds dispensed in DMSO (2 µL) using serial two-fold dilutions. After an incubation period (30°C) determined from the strain specific doubling time, a 0.03% w/v aqueous solution of resazurin (10 µL) was added and the plates were allowed to incubate; each well was then scored for dye reduction.
# Human DHFR = molecular target: T1, Human DHFR (Homo sapiens, UniProt P00374); test: DHFR enzyme inhibition assay (NADPH oxidation, 340 nm); assay type: biochemical; settings: human DHFR; average of at least three measurements; read-out: IC50 (nM) Human
# T1 sequence (P00374 1-187): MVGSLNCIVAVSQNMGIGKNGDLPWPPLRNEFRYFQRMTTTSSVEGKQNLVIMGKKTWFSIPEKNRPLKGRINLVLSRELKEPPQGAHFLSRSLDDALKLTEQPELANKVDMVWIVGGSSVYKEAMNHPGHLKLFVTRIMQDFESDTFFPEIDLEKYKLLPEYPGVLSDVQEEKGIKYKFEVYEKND
# Procedure: (§2) Enzyme inhibition assays were performed by monitoring the rate of NADPH oxidation by the DHFR enzyme at an absorbance of 340 nm over five minutes. Assays were performed in the presence of saturating concentrations of NADPH (100 µM) and initiated with dihydrofolate (1 mM). All assays were completed at 25°C in a buffer containing 20 mM TES pH 7.0, 50 mM KCl, 10 mM 2-mercaptoethanol, 0.5 mM EDTA and 1 mg/mL BSA. Inhibition was measured at least three times with inhibitor concentrations near the IC50 value and the average IC50 value is reported with a standard deviation.
# MRSA (S.aureus 13709) = test: MIC, broth microdilution with Alamar Blue; assay type: cell-based, Staphylococcus aureus; settings: for Selectivity MRSA: IC50 (MCF10)/MIC (pathogen), both values in µM
# Procedure: as §1
# S. pyogenes DHFR = S. pyogenes DHFR (Streptococcus pyogenes, UniProt Q9A091); test: biochemical; assay type: biochemical; settings: for Selectivity (h/Sp): IC50 (human)/IC50 (pathogen)
# Procedure: (§3) S. aureus DHFR was cloned, expressed and purified as previously described. Briefly, the DHFR gene was inserted into vector pET41 with a His8 tag for purification. The protein was expressed in E. coli BL21 (DE3) cells. […] The protein was concentrated to ∼5 mg/mL. S. pyogenes DHFR was cloned using PCR from genomic DNA and inserted in vector pET-41.
# as §2
# S. aureus DHFR = molecular target: T2, S. aureus DHFR (Staphylococcus aureus, UniProt P0A017); test: biochemical; assay type: biochemical; settings: for IC50: S. aureus DHFR, average of at least three measurements, read-out: IC50 (nM) Sa
# T2 construct: the DHFR gene was inserted into vector pET41 with a His8 tag for purification; His8; made in house; host or cells: E. coli BL21 (DE3)
# Procedure: as §3, §2
# MCF-10 cells = test: Mammalian cell toxicity (Alamar Blue); assay type: cell-based; settings: read-out: IC50 MCF-10
# Procedure: Adherent cell lines were maintained in Eagle's Minimal Essential Media (Sigma-Aldrich, St. Louis, MO, USA) with 2 mM glutamine and Earle's Balanced Salt Solution (HyClone, Logan, UT, USA) adjusted to contain 1.5 g/L sodium bicarbonate, 0.1 mM non-essential amino acids, 1 mM sodium pyruvate and 10% fetal calf serum. Fetal calf serum used in these assays was lot matched throughout. […] Toxicity assays were conducted between passages 10–20. Target compound toxicity was measured by incubating the test compound with the cells for 4 h, washing the cells and finally treating the cells with Alamar Blue. After 12–24 h, the fluorescence of the reduced dye was measured. Fluorescence intensity as a function of test compound concentration was fit to the Fermi equation, using non-linear least squares regression analysis, to estimate IC50 values.
# USA300 CA-MRSA = test: MIC against clinical isolates of MRSA; assay type: cell-based, Staphylococcus aureus
# VISA Mu50 = test: MIC against clinical isolates of MRSA; assay type: cell-based; settings: Staphylococcus aureus, read-out: MIC VISA Mu50
# HA-MRSA = test: MIC against clinical isolates of MRSA; assay type: cell-based; settings: Staphylococcus aureus, read-out: MIC HA-MRSA
# USA100 HA-MRSA = test: MIC against clinical isolates of MRSA; assay type: cell-based; settings: Staphylococcus aureus
# hVISA Mu3 = test: MIC against clinical isolates of MRSA; assay type: cell-based; settings: Staphylococcus aureus, read-out: MIC hVISA Mu3
# [1] = system: TMP-SMZ-resistant MRSA strain; test: MIC against clinical isolates of MRSA; assay type: cell-based; settings: Staphylococcus aureus, read-out: MIC TMP-SMZ^R
# [2] = Streptococcus pyogenes, 10% FCS, read-out: MIC S. pyogenes +FCS
# [3] = Streptococcus pyogenes, 10% FCS, value in parentheses, read-out: MIC S. pyogenes +FCS
# [4] = Streptococcus pyogenes, value in parentheses, read-out: MIC S. pyogenes
# [5] = Streptococcus pyogenes, read-out: MIC S. pyogenes
# [6] = Staphylococcus aureus, MRSA, 10% fetal calf serum, read-out: MIC MRSA +FCS
# [7] = Staphylococcus aureus, MRSA, 10% fetal calf serum, value in parentheses, read-out: MIC MRSA +FCS
# [8] = Staphylococcus aureus, MRSA, value in parentheses, read-out: MIC MRSA
# [9] = Staphylococcus aureus, MRSA, read-out: MIC MRSA
# [10] = Homo sapiens, MCF10, cytotoxicity, 4 h incubation
# Sequence of S. pyogenes DHFR (Q9A091 entry or part of it): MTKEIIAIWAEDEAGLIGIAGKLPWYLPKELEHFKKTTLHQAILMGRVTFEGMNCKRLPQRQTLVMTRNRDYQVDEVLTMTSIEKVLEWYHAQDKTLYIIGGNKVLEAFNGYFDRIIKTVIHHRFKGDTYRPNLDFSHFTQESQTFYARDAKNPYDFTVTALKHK
# T2 sequence (P0A017 whole entry): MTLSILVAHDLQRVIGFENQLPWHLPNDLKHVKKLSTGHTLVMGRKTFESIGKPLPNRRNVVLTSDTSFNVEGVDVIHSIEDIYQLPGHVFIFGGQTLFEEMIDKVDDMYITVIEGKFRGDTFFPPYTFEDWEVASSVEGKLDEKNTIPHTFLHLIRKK
structure (smiles),measurement,setting,value
COc1ccc(-c2ccccc2)cc1C(C)C#Cc1c(C)nc(N)nc1N (centres unmarked) [Compound 10],IC50,HepG2 cells,94 µM
same,Selectivity S. pyogenes,Streptococcus pyogenes,76
same,MIC,Streptococcus pyogenes; [2],5.7 µg/mL
same,MIC,Streptococcus pyogenes; [3],16 µM
same,MIC,Streptococcus pyogenes; [4],0.5 µM
same,MIC,Streptococcus pyogenes; [5],0.18 µg/mL
same,IC50,Human DHFR,97 ± 10 nM
same,Selectivity MRSA,MRSA (S.aureus 13709),19
same,MIC,MRSA (S.aureus 13709); [6],11.4 µg/mL
same,MIC,MRSA (S.aureus 13709); [7],32 µM
same,MIC,MRSA (S.aureus 13709); [8],2 µM
same,MIC,MRSA (S.aureus 13709); [9],0.72 µg/mL
same,Selectivity (h/Sp),S. pyogenes DHFR,4
same,Selectivity (h/Sa),S. aureus DHFR,1.3
same,IC50,S. aureus DHFR,75 ± 4 nM
same,IC50,MCF-10 cells; [10],38 µM
COc1cc(-c2cc(C)cc(C)c2)cc(C(C)C#Cc2c(C)nc(N)nc2N)c1 (centres unmarked) [Compound 1],MIC S. pyogenes,Streptococcus pyogenes,0.097 µg/mL
same,MIC,Streptococcus pyogenes; [4],0.25 µM
same,MIC,Streptococcus pyogenes; [5],0.1 µg/mL
same,MIC MRSA,MRSA (S.aureus 13709),5.76 µg/mL
same,MIC,MRSA (S.aureus 13709); [8],16 µM
same,MIC,MRSA (S.aureus 13709); [9],5.8 µg/mL
same,IC50,"MCF-10 cells; Homo sapiens, MCF10, 4 h",47 µM
"CN[C@H](CC(C)C)C(=O)N[C@H]1C(=O)N[C@@H](CC(N)=O)C(=O)N[C@H]2C(=O)N[C@H]3C(=O)N[C@H](C(=O)N[C@H](C(=O)O)c4cc(O)cc(O)c4-c4cc3ccc4O)[C@H](O)c3ccc(c(Cl)c3)Oc3cc2cc(c3O[C@@H]2O[C@H](CO)[C@@H](O)[C@H](O)[C@H]2O[C@H]2C[C@](C)(N)[C@H](O)[C@H](C)O2)Oc2ccc(cc2Cl)[C@H]1O [Vancomycin, reference compound]",MIC,"USA300 CA-MRSA; Staphylococcus aureus, read-out: MIC USA300 CA-MRSA",1 µg/mL
same,MIC USA300 CA-MRSA,"USA300 CA-MRSA; clinical isolate, USA300",1 µg/mL
same,MIC,VISA Mu50,8 µg/mL
same,MIC,HA-MRSA,1 µg/mL
same,MIC,"USA100 HA-MRSA; read-out: MIC USA100 HA-MRSA, clinical isolate, USA100",1 µg/mL
same,MIC,"USA100 HA-MRSA; read-out: MIC USA100 HA-MRSA, clinical isolate, first USA100 column",0.5 µg/mL
same,MIC,"USA100 HA-MRSA; read-out: MIC USA100 HA-MRSA, clinical isolate, third USA100 column",1 µg/mL
same,MIC,hVISA Mu3,3 µg/mL
same,MIC,[1],2 µg/mL
COc1cc(C(C)C#Cc2c(C)nc(N)nc2N)cc(N2CCOCC2)c1 (centres unmarked) [Compound 31],IC50,HepG2 cells,494 µM
same,Selectivity S. pyogenes,Streptococcus pyogenes,58
same,MIC,Streptococcus pyogenes; [2],2.94 µg/mL
same,MIC,Streptococcus pyogenes; [3],8 µM
same,MIC,Streptococcus pyogenes; [4],8 µM
same,MIC,Streptococcus pyogenes; [5],2.94 µg/mL
same,IC50,Human DHFR,400 ± 40 nM
same,Selectivity MRSA,MRSA (S.aureus 13709),116
same,MIC,MRSA (S.aureus 13709); [6],2.94 µg/mL
same,MIC,MRSA (S.aureus 13709); [7],8 µM
same,MIC,MRSA (S.aureus 13709); [8],4 µM
same,MIC,MRSA (S.aureus 13709); [9],1.5 µg/mL
same,Selectivity (h/Sp),S. pyogenes DHFR,15
same,Selectivity (h/Sa),S. aureus DHFR; IC50 (human)/IC50 (pathogen),14
same,IC50,S. aureus DHFR,29 ± 2 nM
same,IC50,MCF-10 cells; [10],462 µM
CCc1nc(N)nc(N)c1C#CCc1cc(OC)cc(-c2ccccc2)c1 [Compound 9],MIC S. pyogenes,Streptococcus pyogenes,0.18 µg/mL
same,MIC S. pyogenes +FCS,Streptococcus pyogenes; 10% FCS,0.72 µg/mL
same,MIC,"Streptococcus pyogenes; 10% FCS, value in parentheses, read-out: MIC S. pyogenes +FCS",2 µM
same,MIC,"Streptococcus pyogenes; value in parentheses, read-out: MIC S. pyogenes",0.5 µM
same,IC50,Human DHFR,140 ± 1 nM
same,MIC MRSA,MRSA (S.aureus 13709),0.18 µg/mL
same,MIC MRSA +FCS,MRSA (S.aureus 13709); 10% fetal calf serum,1.4 µg/mL
same,MIC,"MRSA (S.aureus 13709); 10% fetal calf serum, value in parentheses, read-out: MIC MRSA +FCS",4 µM
same,MIC,"MRSA (S.aureus 13709); value in parentheses, read-out: MIC MRSA",0.5 µM
same,Selectivity (h/Sp),S. pyogenes DHFR,3
same,IC50,"S. pyogenes DHFR; S. pyogenes DHFR, average of at least three measurements, read-out: IC50 (nM) Sp",52 ± 1.7 nM
same,Selectivity (h/Sa),S. aureus DHFR; IC50 (human)/IC50 (pathogen),2.4
same,IC50,S. aureus DHFR,59 ± 2.3 nM
same,IC50,"MCF-10 cells; cytotoxicity, 4 h incubation",199 µM
